Reference: patent US9253983B2, “Triazole compound and use thereof” (KUREHA CORPORATION, priority 2011, dated 2016)

How the values were obtained:
Gibberella fujikuroi = test: Test 1 for antifungal effect, plate medium: G.f; type: cell-based; details: PDA plate medium
Method: (§1) Compound (1-1a) or Compound (1-2a) was dissolved in dimethyl sulfoxide, and the resulting solution was added to a PDA medium (potato dextrose-agar medium) at about 60° C. The medium and the solution were mixed thoroughly in a conical flask, poured into a petri dish, and allowed to solidify. In this way, a plate medium containing Compound (1-1a) or Compound (1-2a) at a certain concentration was prepared.
(§2) Meanwhile, test microorganisms cultured on a plate medium in advance were cut out with the use of a cork borer 4 mm in diameter, and were inoculated onto the compound-containing plate medium. After the inoculation, the microorganisms were cultured at their optimum growth temperatures (for example, refer to LIST OF CULTURES 1996 microorganisms 10th edition, Institute for Fermentation (foundation)) for 1 day to 7 days, and their growth was determined by measuring the diameter of their flora. The extent of growth of the microorganisms on the compound-containing plate medium was compared with that of microorganisms on a plate medium where no compound was added, and mycelial growth inhibition rate was calculated by the following equation: R=100(dc−dt)/dc where R is mycelial growth inhibition rate (%), dc is the flora diameter in untreated plate, and dt is the flora diameter in plate treated with the compound.
(§3) A larger antifungal index indicates a better antifungal effect.

Microdochium nivale = test: Test 1 for antifungal effect, plate medium: M.n; type: cell-based; details: PDA plate medium
Method: as §1, §2, §3

Phaeosphaeria nodorum = test: Test 1 for antifungal effect, plate medium: P.n; type: cell-based; details: PDA plate medium
Method: as §1, §2, §3

Ustilago nuda = test: Test 2 for antifungal effect, plate medium: U.n; type: cell-based; details: PDA plate medium
Method: as §1, with “(1-1b)” for “(1-1a)”, “(1-2b)” for “(1-2a)”
(§4) Meanwhile, test microorganisms cultured on a plate medium in advance were cut out with the use of a cork borer 4 mm in diameter, and were inoculated onto the compound-containing plate medium. After the inoculation, the pathogens were cultured at their optimum growth temperatures (for example, refer to LIST OF CULTURES 1996 microorganisms 10th edition, Institute for Fermentation (foundation)) for 1 day to 7 days, and their growth was determined by measuring the diameter of their flora. The extent of growth of the pathogens on the compound-containing plate medium was compared with that of pathogens on a plate medium where no compound was added, and mycelial growth inhibition rate was calculated as in Experiment Example 10. Note that, in Experiment Example 11, controls used in the antifungal effect tests are Compound (1-1a) and Compound (1-2a) instead of Compound (1-1b) and Compound (1-2b), respectively.
(§5) The results were rated on a 1-to-5 scale as in Experiment Example 10.

Fusarium oxysporum = test: Test 2 for antifungal effect, plate medium: F.c; type: cell-based; details: PDA plate medium
Method: as §1, with “(1-1b)” for “(1-1a)”, “(1-2b)” for “(1-2a)”
as §4, §5

Penicillium italicum = test: Test 2 for antifungal effect, plate medium: P.i; type: cell-based; details: PDA plate medium
Method: as §1, with “(1-1b)” for “(1-1a)”, “(1-2b)” for “(1-2a)”
as §4, §5

Gaeumannomyces graminis = test: Test 1 for antifungal effect, plate medium: G.g; type: cell-based; details: PDA plate medium
Method: as §1, §2, §3

Puccinia recondita = test: Efficacy of seed treatment on wheat brown rust; type: in vivo; details: wheat seed treatment 20 g ai/100 kg seeds, 12 days after inoculation
Method: A pot experiment was performed to evaluate the efficacy of seed treatment in controlling wheat leaf rust. Compound (1-1a) and Compound (1-2a), each of which was dissolved in DMSO to make up such a concentration that the seeds would be treated in treatment amount of 20 g ai/100 kg seeds, were each applied to wheat seeds in a vial, and thereafter 8 wheat seeds were sowed on an 80-cm^2 pot. The pot was kept in a greenhouse with water supplied to its bottom. 21 days after the sowing, the wheat seeds were inoculated with Puccinia recondita, and kept in a wet box for 2 days. After that, the pot was again kept in the greenhouse with water supplied to its bottom. 12 days after the inoculation, the percentage of affected area was found, and the protective value was calculated by the following equation. Protective value (%)=(1−(Percentage of affected area in treated region/Percentage of affected area in untreated region))×100

wheat = test: Growth inhibition (adverse effects) of seed treatment on wheat seeds; type: in vivo; details: wheat, 20 days after sowing
Method: A pot experiment was performed to evaluate the growth inhibition (adverse effects) caused by the seed treatment. Compound (1-1a) and Compound (1-2a), each of which was dissolved in DMSO to make up such a concentration that the seeds would be treated in treatment amount of 2 g to 200 g ai/100 kg seeds, were each applied to wheat seeds in a vial, and thereafter 8 wheat seeds were sowed in an 80-cm^2 pot. The pot was kept in a greenhouse with water supplied to its bottom. 20 days after the sowing, a growth measure of wheat was evaluated. A growth inhibition index was calculated based on the criteria shown by Table 10. In Table 10, a smaller growth inhibition index indicates a lesser adverse effect of growth inhibition caused by the treatment with the use of a plant disease controlling agent.

Sclerotinia sclerotiorum = test: Test 1 for antifungal effect, plate medium: S.s; type: cell-based; details: PDA plate medium
Method: as §1, §2, §3

Septoria tritici = test: Test 2 for antifungal effect, plate medium: S.t; type: cell-based; details: PDA plate medium
Method: as §1, with “(1-1b)” for “(1-1a)”, “(1-2b)” for “(1-2a)”
as §4, §5

CC1(CCl)CCC(Cc2ccc(Cl)cc2)C1(O)Cn1cncn1 (single isomer, unassigned) [Compound (1-1b), (1,2-cis, 1,5-cis)-5-(4-chlorobenzyl)-2-chloromethyl-2-methyl-1-(1H-1,2,4-triazole-1-ylmethyl)cyclopentanol]
5 (90% or greater): Antifungal index (mycelial growth inhibition rate) (Gibberella fujikuroi; 0.63 mg/L) | Antifungal index (mycelial growth inhibition rate) (Gibberella fujikuroi; 1.25 mg/L) | Antifungal index (mycelial growth inhibition rate) (Gibberella fujikuroi; 2.50 mg/L) | Antifungal index (mycelial growth inhibition rate) (Phaeosphaeria nodorum; 2.50 mg/L) | Antifungal index (mycelial growth inhibition rate) (Ustilago nuda; 1.25 mg/L) | Antifungal index (mycelial growth inhibition rate) (Fusarium oxysporum; 0.31 mg/L) | Antifungal index (mycelial growth inhibition rate) (Fusarium oxysporum; 0.63 mg/L) | Antifungal index (mycelial growth inhibition rate) (Fusarium oxysporum; 1.25 mg/L) | Antifungal index (mycelial growth inhibition rate) (Penicillium italicum; 0.16 mg/L) | Antifungal index (mycelial growth inhibition rate) (Penicillium italicum; 0.31 mg/L) | Antifungal index (mycelial growth inhibition rate) (Penicillium italicum; 0.63 mg/L) | Antifungal index (mycelial growth inhibition rate) (Penicillium italicum; 1.25 mg/L) | Antifungal index (mycelial growth inhibition rate) (Gaeumannomyces graminis; 1.25 mg/L) | Antifungal index (mycelial growth inhibition rate) (Gaeumannomyces graminis; 2.50 mg/L) | Antifungal index (mycelial growth inhibition rate) (Sclerotinia sclerotiorum; 0.31 mg/L) | Antifungal index (mycelial growth inhibition rate) (Sclerotinia sclerotiorum; 0.63 mg/L) | Antifungal index (mycelial growth inhibition rate) (Sclerotinia sclerotiorum; 1.25 mg/L) | Antifungal index (mycelial growth inhibition rate) (Sclerotinia sclerotiorum; 2.50 mg/L) | Antifungal index (mycelial growth inhibition rate) (Septoria tritici; 0.63 mg/L) | Antifungal index (mycelial growth inhibition rate) (Septoria tritici; 1.25 mg/L)
3 (Less than 80% but not less than 70%): Antifungal index (mycelial growth inhibition rate) (Gibberella fujikuroi; 0.16 mg/L) | Antifungal index (mycelial growth inhibition rate) (Microdochium nivale; 2.50 mg/L) | Antifungal index (mycelial growth inhibition rate) (Phaeosphaeria nodorum; 1.25 mg/L) | Antifungal index (mycelial growth inhibition rate) (Ustilago nuda; 0.31 mg/L) | Antifungal index (mycelial growth inhibition rate) (Fusarium oxysporum; 0.08 mg/L) | Antifungal index (mycelial growth inhibition rate) (Penicillium italicum; 0.04 mg/L) | Antifungal index (mycelial growth inhibition rate) (Sclerotinia sclerotiorum; 0.16 mg/L) | Antifungal index (mycelial growth inhibition rate) (Septoria tritici; 0.31 mg/L)
63%: Protective value (%) (Puccinia recondita)
4 (Less than 20% but 10% or more): Growth inhibition index (wheat; treatment amount 20 g ai/100 kg seeds) | Growth inhibition index (wheat; treatment amount 200 g ai/100 kg seeds)
1 (Less than 60%): Antifungal index (mycelial growth inhibition rate) (Microdochium nivale; 0.16 mg/L) | Antifungal index (mycelial growth inhibition rate) (Microdochium nivale; 0.31 mg/L) | Antifungal index (mycelial growth inhibition rate) (Microdochium nivale; 0.63 mg/L) | Antifungal index (mycelial growth inhibition rate) (Ustilago nuda; 0.04 mg/L) | Antifungal index (mycelial growth inhibition rate) (Ustilago nuda; 0.08 mg/L) | Antifungal index (mycelial growth inhibition rate) (Fusarium oxysporum; 0.04 mg/L) | Antifungal index (mycelial growth inhibition rate) (Gaeumannomyces graminis; 0.16 mg/L) | Antifungal index (mycelial growth inhibition rate) (Gaeumannomyces graminis; 0.31 mg/L) | Antifungal index (mycelial growth inhibition rate) (Septoria tritici; 0.04 mg/L) | Antifungal index (mycelial growth inhibition rate) (Septoria tritici; 0.08 mg/L) | Antifungal index (mycelial growth inhibition rate) (Septoria tritici; 0.16 mg/L)
4 (Less than 90% but not less than 80%): Antifungal index (mycelial growth inhibition rate) (Gibberella fujikuroi; 0.31 mg/L) | Antifungal index (mycelial growth inhibition rate) (Ustilago nuda; 0.63 mg/L) | Antifungal index (mycelial growth inhibition rate) (Fusarium oxysporum; 0.16 mg/L) | Antifungal index (mycelial growth inhibition rate) (Penicillium italicum; 0.08 mg/L)
2 (Less than 70% but not less than 60%): Antifungal index (mycelial growth inhibition rate) (Microdochium nivale; 1.25 mg/L) | Antifungal index (mycelial growth inhibition rate) (Phaeosphaeria nodorum; 0.16 mg/L) | Antifungal index (mycelial growth inhibition rate) (Phaeosphaeria nodorum; 0.31 mg/L) | Antifungal index (mycelial growth inhibition rate) (Phaeosphaeria nodorum; 0.63 mg/L) | Antifungal index (mycelial growth inhibition rate) (Ustilago nuda; 0.16 mg/L) | Antifungal index (mycelial growth inhibition rate) (Gaeumannomyces graminis; 0.63 mg/L)
0 (50% or more): Growth inhibition index (wheat; treatment amount 2 g ai/100 kg seeds)
